From PubChem BioAssay (NCI)
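Assay format: 96-well plates, 48-hour exposure. Definition used: TGI = concentration required for complete inhibition of growth.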

Legend:
Assay in all cases: NCI anticancer screen, dose series, 48 h
[1] = tested on: 786-0 renal
[2] = tested on: A498 renal
[3] = tested on: A549 NSCLC
[4] = tested on: ACHN renal
[5] = tested on: BT-549 breast
[6] = tested on: CAKI-1 renal
[7] = tested on: CCRF-CEM leukemia
[8] = tested on: COLO 205 colon
[9] = tested on: DU-145 prostate
[10] = tested on: EKVX NSCLC
[11] = tested on: HCC-2998 colon
[12] = tested on: HCT-116 colon
[13] = tested on: HCT-15 colon
[14] = tested on: HL-60(TB) leukemia
[15] = tested on: HOP-62 NSCLC
[16] = tested on: HOP-92 NSCLC
[17] = tested on: HS 578T breast
[18] = tested on: HT29 colon
[19] = tested on: IGROV1 ovarian
[20] = tested on: K-562 leukemia
[21] = tested on: KM12 colon
[22] = tested on: LOX IMVI melanoma
[23] = tested on: M14 melanoma
[24] = tested on: MALME-3M melanoma
[25] = tested on: MCF7 breast
[26] = tested on: MDA-MB-231 breast
[27] = tested on: MDA-MB-435
[28] = tested on: MDA-N
[29] = tested on: MOLT-4 leukemia
[30] = tested on: NCI-H23 lung
[31] = tested on: NCI-H460 lung
[32] = tested on: NCI-H522 lung
[33] = tested on: NCI/ADR-RES ovarian
[34] = tested on: OVCAR-3 ovarian
[35] = tested on: OVCAR-4 ovarian
[36] = tested on: OVCAR-5 ovarian
[37] = tested on: OVCAR-8 ovarian
[38] = tested on: PC-3 prostate
[39] = tested on: RPMI-8226 leukemia
[40] = tested on: RXF 393 renal
[41] = tested on: SF-268 CNS
[42] = tested on: SF-295 CNS
[43] = tested on: SK-MEL-2 melanoma
[44] = tested on: SK-MEL-28 melanoma
[45] = tested on: SK-MEL-5 melanoma
[46] = tested on: SK-OV-3 ovarian
[47] = tested on: SN12C renal
[48] = tested on: SNB-19 CNS
[49] = tested on: SNB-75 CNS
[50] = tested on: SW-620 colon
[51] = tested on: T-47D breast
[52] = tested on: TK-10 renal
[53] = tested on: U251 CNS
[54] = tested on: UACC-257 melanoma
[55] = tested on: UACC-62 melanoma
[56] = tested on: UO-31 renal
[57] = tested on: NCI-H226 lung
[58] = tested on: SF-539 CNS

COc1cc(/C=C2\N=C(c3ccccc3)N(c3nc4ccc(Sc5ccccc5)cc4[nH]3)C2=O)ccc1O
TGI [1]: 49 µM | TGI [2]: 77.1 µM | TGI [3]: > 100 µM | TGI [4]: 86 µM | TGI [5]: 53.7 µM | TGI [6]: > 100 µM | TGI [7]: 55.3 µM | TGI [8]: 32.7 µM | TGI [9]: > 100 µM | TGI [10]: > 100 µM | TGI [11]: 29.3 µM | TGI [12]: 47.3 µM | TGI [13]: > 100 µM | TGI [14]: 31.2 µM | TGI [15]: > 100 µM | TGI [16]: > 100 µM | TGI [17]: > 100 µM | TGI [18]: 38.7 µM | TGI [19]: > 100 µM | TGI [20]: 37.3 µM | TGI [21]: 57.9 µM | TGI [22]: > 100 µM | TGI [23]: 33.6 µM | TGI [24]: 44.1 µM | TGI [25]: 50.7 µM | TGI [26]: 60.4 µM | TGI [27]: 23.2 µM | TGI [28]: 28.5 µM | TGI [29]: 69.4 µM | TGI [30]: > 100 µM | TGI [31]: 50 µM | TGI [32]: 48.3 µM | TGI [33]: 61 µM | TGI [34]: > 100 µM | TGI [35]: > 100 µM | TGI [36]: > 100 µM | TGI [37]: > 100 µM | TGI [38]: > 100 µM | TGI [39]: 47.8 µM | TGI [40]: > 100 µM | TGI [41]: > 100 µM | TGI [42]: 94.7 µM | TGI [43]: 30.6 µM | TGI [44]: 75.3 µM | TGI [45]: 28.1 µM | TGI [46]: > 100 µM | TGI [47]: 97.5 µM | TGI [48]: > 100 µM | TGI [49]: > 100 µM | TGI [50]: > 100 µM | TGI [51]: > 100 µM | TGI [52]: 53.5 µM | TGI [53]: 43.7 µM | TGI [54]: 47.1 µM | TGI [55]: 53.3 µM | TGI [56]: > 100 µM

COc1ccc(OC)c2c1C(=O)C(=O)C(Cl)=C2O
TGI [1]: > 100 µM | TGI [2]: > 100 µM | TGI [3]: > 100 µM | TGI [4]: > 100 µM | TGI [5]: > 100 µM | TGI [6]: > 100 µM | TGI [7]: > 100 µM | TGI [8]: > 100 µM | TGI [9]: > 100 µM | TGI [11]: > 100 µM | TGI [12]: > 100 µM | TGI [13]: > 100 µM | TGI [14]: > 100 µM | TGI [15]: > 100 µM | TGI [16]: > 100 µM | TGI [17]: > 100 µM | TGI [18]: > 100 µM | TGI [19]: > 100 µM | TGI [20]: > 100 µM | TGI [21]: > 100 µM | TGI [22]: > 100 µM | TGI [23]: > 100 µM | TGI [24]: > 100 µM | TGI [25]: > 100 µM | TGI [26]: > 100 µM | TGI [27]: > 100 µM | TGI [28]: > 100 µM | TGI [29]: > 100 µM | TGI [57]: > 100 µM | TGI [30]: > 100 µM | TGI [31]: > 100 µM | TGI [32]: > 100 µM | TGI [33]: > 100 µM | TGI [34]: > 100 µM | TGI [35]: > 100 µM | TGI [36]: > 100 µM | TGI [37]: > 100 µM | TGI [38]: > 100 µM | TGI [39]: > 100 µM | TGI [40]: > 100 µM | TGI [41]: > 100 µM | TGI [42]: > 100 µM | TGI [58]: > 100 µM | TGI [43]: > 100 µM | TGI [44]: > 100 µM | TGI [45]: > 100 µM | TGI [46]: > 100 µM | TGI [48]: > 100 µM | TGI [49]: > 100 µM | TGI [50]: > 100 µM | TGI [51]: > 100 µM | TGI [52]: > 100 µM | TGI [53]: > 100 µM | TGI [54]: > 100 µM | TGI [55]: > 100 µM | TGI [56]: > 100 µM

CCOC(=O)/C=C\c1c(Cl)n(-c2ccccc2)c(=O)n(-c2ccccc2)c1=O
TGI [1]: 39.6 µM | TGI [2]: 50.8 µM | TGI [3]: 60.1 µM | TGI [4]: 35.1 µM | TGI [5]: 36.1 µM | TGI [6]: 35.7 µM | TGI [7]: 58.7 µM | TGI [8]: 34.6 µM | TGI [9]: 34.9 µM | TGI [10]: 48.5 µM | TGI [11]: 33.2 µM | TGI [12]: 54.9 µM | TGI [13]: 39.7 µM | TGI [14]: 23.4 µM | TGI [15]: 40 µM | TGI [16]: 36 µM | TGI [17]: 65.2 µM | TGI [18]: 38.4 µM | TGI [19]: 36.2 µM | TGI [21]: 35.8 µM | TGI [22]: 50.6 µM | TGI [23]: 33.7 µM | TGI [24]: 44 µM | TGI [25]: 46 µM | TGI [26]: 36.3 µM | TGI [27]: 44.8 µM | TGI [28]: 31.8 µM | TGI [29]: 87.2 µM | TGI [57]: 50.8 µM | TGI [30]: 41.7 µM | TGI [31]: 34.1 µM | TGI [32]: 46.5 µM | TGI [33]: 72.7 µM | TGI [34]: 36.1 µM | TGI [35]: > 100 µM | TGI [36]: 36.9 µM | TGI [37]: 34.7 µM | TGI [38]: 33.3 µM | TGI [40]: 32.9 µM | TGI [41]: 44.7 µM | TGI [42]: 40.2 µM | TGI [58]: 31.8 µM | TGI [43]: 33.5 µM | TGI [44]: 41.1 µM | TGI [46]: 37.2 µM | TGI [47]: 36.4 µM | TGI [48]: 31.6 µM | TGI [49]: 29.2 µM | TGI [50]: 61.6 µM | TGI [51]: 42.2 µM | TGI [52]: 32.3 µM | TGI [53]: > 100 µM | TGI [54]: 35.5 µM | TGI [55]: 34.8 µM | TGI [56]: 33.2 µM
